Key:
[1] = biological target: T1, Tyrosine-protein phosphatase non-receptor type 11 (Homo sapiens, UniProt Q06124); test: Antagonist activity at SHP2 in human KYSE520 cells assessed as inhibition of ERK1/2 phosphorylation incubated for 2 hrs; format: cell-based
T1 sequence (Q06124 whole entry): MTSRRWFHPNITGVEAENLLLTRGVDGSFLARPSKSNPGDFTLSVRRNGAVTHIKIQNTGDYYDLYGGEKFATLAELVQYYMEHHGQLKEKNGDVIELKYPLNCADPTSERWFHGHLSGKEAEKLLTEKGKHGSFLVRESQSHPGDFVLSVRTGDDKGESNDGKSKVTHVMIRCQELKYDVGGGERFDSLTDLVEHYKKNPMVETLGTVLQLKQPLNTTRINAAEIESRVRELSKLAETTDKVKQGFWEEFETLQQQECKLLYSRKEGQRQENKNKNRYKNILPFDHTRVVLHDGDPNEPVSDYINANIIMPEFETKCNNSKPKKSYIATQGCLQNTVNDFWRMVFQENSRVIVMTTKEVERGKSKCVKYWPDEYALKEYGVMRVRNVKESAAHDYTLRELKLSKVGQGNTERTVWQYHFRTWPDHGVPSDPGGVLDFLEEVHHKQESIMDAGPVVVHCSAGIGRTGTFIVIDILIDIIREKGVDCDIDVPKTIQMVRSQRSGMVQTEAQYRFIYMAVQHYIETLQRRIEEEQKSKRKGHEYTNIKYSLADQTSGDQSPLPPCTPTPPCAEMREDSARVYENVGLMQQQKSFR

[2] = biological target: T1, Tyrosine-protein phosphatase non-receptor type 11; test: Antagonist activity at recombinant human N-terminal His6-tagged full length SHP2 expressed in Escherichia coli using DiFMUP as substrate measured after 60 mins in presence of IRS1-2pY peptide by fluorescence assay

Structure (SMILES) | IC50 [1] | IC50 [2]
Cc1c(N2CCC3(CC2)Oc2ccccc2[C@H]3N)nc(C)n(-c2cccc(Cl)c2Cl)c1=O | 6.6 nM | 
Cc1c(F)ccc(-n2c(C)nc(N3CCC4(CC3)Cc3ccccc3[C@H]4N)c(C)c2=O)c1Cl | 7 nM | 
Cc1c(N2CCC3(CC2)Cc2ncccc2[C@@H]3N)nc(C)n(-c2cccc(Cl)c2Cl)c1=O | 5 nM | 1 nM
Cc1c(N2CCC3(CC2)Cc2ccccc2[C@H]3N)nc(C)n(-c2cccc(Cl)c2Cl)c1=O | 2 nM | 
Cc1c(N2CCC3(CC2)Cc2ccccc2[C@H]3N)nc(C)n(-c2ccc(F)c(Cl)c2Cl)c1=O | 4 nM | 
Cc1nc(N2CCC3(CC2)Cc2ccccc2[C@H]3N)cc(=O)n1-c1cccc(Cl)c1Cl | 5 nM | 

Source: ChEMBL document CHEMBL4673380, “Novel Pyrimidinones as SHP2 Antagonists for Treating Cancer” (ACS Med Chem Lett, 2021)
